Columns and labels:
[1] = molecular target: T1, NAC peptide (Homo sapiens, UniProt P37840); experiment: Circular dichroism (CD) analysis of NAC peptide conformation after incubation with test compounds (fibrillogenesis assay); format: biochemical; set-up: key to CD Result (NAC conformation observed): Random Coil: signifies that the NAC in the sample was observed to have been maintained in its original random coil conformation indicating that the compound coincubated with NAC is active; signifies that the compound was not able to prevent the shift from random coil to β-sheet; β-sheet/β-turn: signifies that the compound was not able to prevent the shift from random coil to β-sheet; Transition: signifies that the NAC was observed to be in the process of converting from random coil to β-sheet indicating that the compound was able to slow down the conformational change and indicates activity; details: for CD Result (NAC conformation observed): 125 μL of 40 μM NAC peptide with 125 μL of 200 μM test compound, pH 7.4, 37° C., conformations over repeated trials; for Activity (CD): active if it prevents the transition to β-turn/β-sheet in 50% or more of the trials; for Activity: active trials / trials: number of CD trials in which transition to β-turn/β-sheet was prevented, over trials run
T1 construct: a 35 amino acid peptide corresponding to residues 61 to 95 of the α-synuclein protein; made in house; host or cells: chemical solid-phase peptide synthesis (Fmoc), not expressed
Method: 2 mM Solutions were prepared in TBSA buffer (Tris 0.02 M, NaCl 0.15 M, NaN3 0.005%, pH 7.4) and stored at 4° C. For the assays, compounds were diluted to the desired concentrations in TBSAE buffer (Tris 0.02 M, NaCl 0.15 M, NaN3 0.005%, EDTA 100 μM, pH 7.4) and combined with the NAC peptides.
Fibrillogenesis assays were employed to identify test compounds that inhibit NAC's ability to assemble into fibers. Following removal of HFIP by evaporation under N2 gas, 20 μM NAC peptide is incubated in the assay buffer (0.02M Tris, 0.15 M NaCl, 0.005% NaN3, 100 uM EDTA) at 37° C. in a Perkin-Elmer HTS 7000 plus microplate reader with shaking for 1 minute every twenty minutes. The presence of fibers can be monitored by three different methods.
The following assays were set up in clear polystyrene 96 well microplates by combining 125 μL of 40 μM NAC peptide with 125 μL of 200 μM test compound in 0.02M Tris, 0.15 M NaCl, 0.005% NaN3, […]. The microplates were sealed with a plastic sheet and incubated at 37° C. in a Perkin-Elmer HTS 7000 microplate reader with shaking for 1 minute, every 20 minutes. • Thioflavin T Analysis. To perform this assay 5 μM Thioflavin T is added to the NAC assembly conditions described above. The fluorescence is measured at 430 excitation/485 emission every twenty minutes with a Perkin-Elmer HTS microplate reader for the duration of the assay. […] This assay allows for the identification of compounds that can inhibit this increase in fluorescence upon incubation. • Turbidity Analysis. Alternatively, NAC peptide that has been incubated with test compounds in the appropriate assembly conditions can be analyzed by reading the absorbance at 405 nm to follow the turbidity of the solution which is also an indication of the formation of aggregates. • Circular Dichroism (CD) Analysis. […] This assay allows for the identification of compounds that can prevent NAC from adopting a β-sheet/β-turn conformation upon incubation. • At the appropriate time point, during the incubation, the test solutions were transferred to 0.1-cm path length quartz cuvettes and scanned by CD spectroscopy between 190 and 260 nm, with a resolution of 0.1 nm and a bandwidth of 1 nm using a Jasco J-715 spectropolarimeter at 37° C. […] At the time point at which CD scans are performed a 3 μl aliquot is removed from the sample, spotted onto a Formvar grid and then negatively stained with 4% uranyl acetate. The grids were examined for the presence of fibrils and amorphous aggregates using a JOEL 2000 transmission electron microscope at a 25,000 × magnification. This assay can be used to confirm the absence of fibers in the presence of compounds which inhibit NAC assembly by ThT and CD. The final results were obtained by averaging 10 complete sectors.
For compounds that have been tested multiple times, a compound is classified as active if it prevents the transition to β-turn/β-sheet in 50% or more of the trials.

[2] = molecular target: T1, NAC peptide; experiment: Binding of compounds to NAC peptide by electrospray mass spectrometry; details: area of bound NAC-compound complex peaks divided by area of unbound NAC peaks; 5:1 compound:NAC, pH 7.4, 6.6% EtOH
Method: The ability of the compounds of the present invention to bind to NAC peptide in aqueous solution was evaluated. The binding ability correlates to the intensities of the peptide-compound complex peaks observed by the Electrospray Mass Spectrum. Millipore distilled deionized water was used to prepare all aqueous solutions. For pH determination a Beckman (Φ36 pH meter fitted with a Corning Semi-Micro Combination pH Electrode was employed.
The optimal cone voltage was determined to be 20V.
Mass spectrometry: Mass spectrometric analysis was performed using a Waters ZQ 4000 mass spectrometer equipped with a Waters 2795 sample manager. MassLynx 4.0 (earlier by MassLynx 3.5) was used for data processing and analysis. Test compounds were mixed with disaggregated peptides in aqueous media (6.6% EtOH) at a 5:1 ratio (20 μM NAC: 100 μM of test compound or 40 μM NAC : 200 μM of test compound). The pH of the mixture was adjusted to 7.4 (±0.2) using 0.1% NaOH (3-5 μL). Periodically, NAC peptide solution at 20 μM or 40 μM was also prepared in the same fashion and run as control. The spectra were obtained by introducing the solutions to the electrospray source by direct infusion using a syringe pump at a flow rate of 25 μl/min, and scanning from 100 to 2100 Da in the positive mode. The scan time was 0.9 sec per scan with an inter-scan delay of 0.1 sec and the run time was 5 min for each sample. All the mass spectra were sum of 300 scans. The desolvation and source temperature was 70° C. and the cone and capillary voltage were maintained at 20 V and 3.2 kV respectively.
The total area under the peaks for the bound NAC-compound complex divided by total area under the peaks for unbound NAC was determined for each compound tested.

| Structure (SMILES) | CD Result (NAC conformation observed) [1] | Activity (CD) [1] | Activity: active trials / trials [1] | Binding Strength [2] |
| --- | --- | --- | --- | --- |
| CCCC(CO)NCCC(C)S(=O)(=O)O (stereo not drawn) [compound 27] | β-sheet/β- turn | No | 0/2 | – |
| O=S(=O)(O)CC(O)CNC1CCCCC1 (stereo not drawn) [compound 21] | β-sheet/β- turn Transition | No | ⅓ | – |
| CC(C)(C)NCCCS(C)(=O)=O [compound 19] | Random Coil β-turn | Yes | ½ | – |
| O=S(=O)(O)CCC[N+]12CCC(CC1)CC2 [compound 32] | β-sheet/β- turn Random coil | No | ¼ | – |
| O=S(=O)(O)CCCNCCc1c[nH]c2ccccc12 [compound 17] | β-turn Transition | No | ⅓ | – |
| CCCCCCNCCCS(=O)(=O)O [compound 20] | β-turn | No | 0/2 | – |
| CCCCCCCCCCCCCCS(C)(C)CCCS(=O)(=O)O [compound 10] | Random Coil | Yes | 5/5 | + (Weak; when the total binding is between 70% and 30%) |
| O=S(=O)(O)CCCN1CCc2c([nH]c3ccccc23)C1 [compound 13] | Random coil Transition | Yes | 3/3 | +++ (Strong; when the total binding is 120% and higher) |
| O=S(=O)([O-])CC(O)C[N+]12CCC(CC1)CC2 (stereo not drawn) [compound 31] | β-sheet/β- turn α-helix | No | ⅓ | – |
| NCCS(=O)(=O)O [compound 5] | β-sheet | No | 0/2 | + (Weak; when the total binding is between 70% and 30%) |
| CC(C)CCNCC(O)CS(=O)(=O)O (stereo not drawn) [compound 33] | Random Coil β-sheet/β- turn | Yes | ½ | – |
| CC[N+](CC)(CC)CCCS(=O)(=O)[O-] [compound 16] | Random Coil | Yes | 3/3 | Indeterminant |
| CC(CC[N+]12CCC(CC1)CC2)S(=O)(=O)O (stereo not drawn) [compound 29] | β-turn | No | 0/3 | – |
| O=S(=O)(O)CC(O)CNC1C2CC3CC(C2)CC1C3 (stereo not drawn) [compound 25] | Random Coil | Yes | 2/2 | – |
| NCCCCS(=O)(=O)O [compound 7] | β- turn/βsheet Random coil Transition | Yes | 2/4 | ++ (Moderate; when the total binding is between 120% and 70%) |
| O=S(=O)(O)CCCNC12C[C@H]3C[C@@H](C1)C[C@@H](C2)C3 [compound 26] | Transition β-turn | Yes | ½ | – |
| NCCCOS(=O)(=O)O [compound 4] | β-turn | No | 0/2 | ++ (Moderate; when the total binding is between 120% and 70%) |
| O=S(=O)(O)CCCC[N+]12CCC(CC1)CC2 [compound 30] | Random Coil β-sheet/β- turn | Yes | 2/4 | – |
| CC(C)(C)NCCCCS(=O)(=O)O [compound 28] | β-turn/β- sheet | No | 0/3 | – |
| O=S(=O)(O)CC(O)CNC12C[C@H]3C[C@@H](C1)C[C@@H](C2)C3 (stereo partly drawn) [compound 24] | Random Coil | Yes | 2/2 | – |
| CC(=O)C1(c2ccccc2)CCN(CCCS(=O)(=O)O)CC1 [compound 15] | β-sheet/β- turn Random Coil | No | ¼ | +++ (Strong; when the total binding is 120% and higher) |
| O=C[C@H](Cc1ccccc1)NCCCS(=O)(=O)O [compound 36] | β-sheet | No | 0/1 | – |
| O=C[C@@H](Cc1ccccc1)N(O)CCCS(=O)(=O)O [compound 37] | β-sheet Transition | Yes | ½ | – |
| O=S(=O)(O)CCCN1CCN(Cc2ccccc2)CC1 [compound 12] | β-turn Transition | No | ⅓ | ++ (Moderate; when the total binding is between 120% and 70%) |
| O=S(=O)(O)CCCNC(Cc1ccccc1)c1ccccc1 (stereo not drawn) [compound 22] | Transition β-turn | No | ⅔ | – |
| NCCCCS(=O)(=O)O [compound 6] | β-turn transition | Yes | ½ | +++ (Strong; when the total binding is 120% and higher) |
| CC1CC(NCCCS(=O)(=O)O)CC(C)(C)C1 (stereo not drawn) [compound 34] | Random Coil β-sheet | Yes | ½ | – |
| CC(C)(C)C1CCC(NCCCS(=O)(=O)O)CC1 (stereo not drawn) [compound 35] | β-turn | No | 0/2 | – |
| O=C1NCCCC[C@@H]1NCCCS(=O)(=O)O [compound 18] | β-sheet/β- turn | No | 0/2 | – |
| CC(CCNC12C[C@H]3C[C@@H](C1)C[C@@H](C2)C3)S(=O)(=O)O (stereo partly drawn) [compound 23] | Random Coil β-sheet | Yes | ½ | – |
